Mass density data for 13 molecules are collected here from the NIST ThermoML archive (doi:10.1016/j.jct.2015.09.002).

± gives the expanded uncertainty stated by the source.

For series [1] the following is noted: 93.2 kPa, Liquid, Vibrating tube method.
Series [2] is described as follows: xn = mol fraction of the nth substance listed. As to conditions: 93.2 kPa, Liquid, Vibrating tube method, x1 = 1.

For orientation: mass density means mass per unit of volume. Take `CCCCN` [1-butanamine]: the mass density in series [1] (293.15 K) amounted to 737.12 ± 2 kg/m3; in series [1] (298.15 K) it was 732.33 ± 2 kg/m3; in series [1] (303.15 K), 727.51 ± 2 kg/m3; in series [1] (308.15 K) it was 722.66 ± 2 kg/m3.
Consider `CC(C)(C)N` [2-methyl-2-propanamine], for which the mass density in series [1] (293.15 K) is listed as 692.06 ± 2 kg/m3; in series [1] (298.15 K), 686.65 ± 2 kg/m3; in series [1] (303.15 K) it was 681.18 ± 2 kg/m3; in series [1] (308.15 K) it was 675.66 ± 2 kg/m3.
The like results for `CC#N` [acetonitrile] were, in that order, 782.01 ± 2 kg/m3, 776.61 ± 2 kg/m3, 771.2 ± 2 kg/m3 and 765.75 ± 2 kg/m3.
With `CC#N` [acetonitrile] + CC(C)(C)N, the mass density in series [2] (293.15 K) is given as 782.01 ± 2 kg/m3; in series [2] (298.15 K), 776.61 ± 2 kg/m3; in series [2] (303.15 K), 771.2 ± 2 kg/m3; in series [2] (308.15 K) it was 765.75 ± 2 kg/m3.
In the case of `CC#N` [acetonitrile] + CCCCN, the mass density in series [2] (293.15 K) turned out to be 782.01 ± 2 kg/m3; in series [2] (298.15 K), 776.61 ± 2 kg/m3; in series [2] (303.15 K), 771.2 ± 2 kg/m3; in series [2] (308.15 K), 765.75 ± 2 kg/m3.
The corresponding values for `CC#N` [acetonitrile] + CCCCNCCCC are 782.01 ± 2 kg/m3, 776.61 ± 2 kg/m3, 771.2 ± 2 kg/m3 and 765.75 ± 2 kg/m3.
As to `CC#N` [acetonitrile] + CCCN, the mass density in series [2] (293.15 K) turned out to be 782.01 ± 2 kg/m3; in series [2] (298.15 K), 776.61 ± 2 kg/m3; in series [2] (303.15 K), 771.2 ± 2 kg/m3; in series [2] (308.15 K) it was 765.75 ± 2 kg/m3.
The like results for `CC#N` [acetonitrile] + CCCNCCC were, in that order, 782.01 ± 2 kg/m3, 776.61 ± 2 kg/m3, 771.2 ± 2 kg/m3 and 765.75 ± 2 kg/m3.
The like results for `CC#N` [acetonitrile] + CCN(CC)CC were, in that order, 782.01 ± 2 kg/m3, 776.61 ± 2 kg/m3, 771.2 ± 2 kg/m3 and 765.75 ± 2 kg/m3.
Regarding `CCCCNCCCC` [dibutylamine], the mass density in series [1] (293.15 K) was 759.7 ± 2 kg/m3; in series [1] (298.15 K), 755.61 ± 2 kg/m3; in series [1] (303.15 K), 751.5 ± 2 kg/m3; in series [1] (308.15 K), 747.38 ± 2 kg/m3.
The corresponding values for `CCCNCCC` [dipropylamine] are 738.18 ± 2 kg/m3, 733.64 ± 2 kg/m3, 729.07 ± 2 kg/m3 and 724.48 ± 2 kg/m3.
For the molecule `CCCN` [propan-1-amine], the mass density in series [1] (293.15 K) was 716.48 ± 2 kg/m3; in series [1] (298.15 K), 711.21 ± 2 kg/m3; in series [1] (303.15 K), 705.88 ± 2 kg/m3; in series [1] (308.15 K), 700.62 ± 2 kg/m3.
The like results for `CCN(CC)CC` [triethylamine] were, in that order, 727.7 ± 2 kg/m3, 723.02 ± 2 kg/m3, 718.36 ± 2 kg/m3 and 713.65 ± 2 kg/m3.
